Assay results from patent publication USRE39591E1, “6-O-substituted ketolides having antibacterial activity” (Abbott Laboratories, priority 1996, dated 2007).

System: up to 32 different microorganisms
Experiment: in vitro antibacterial activity (MIC), agar dilution on Brain Heart Infusion (BHI) agar with Steers replicator
Assay type: cell-based
Details: unit assumed
Method: Representative compounds of the present invention were assayed in vitro for antibacterial activity as follows: Twelve petri dishes containing successive aqueous dilutions of the test compound mixed with 10 mL of sterilized Brain Heart Infusion (BHI) agar (Difco 0148-01-5) were prepared. Each plate was inoculated with 1:100 (or 1:10 for slow-growing strains, such as Micrococcus and Streptococcus) dilutions of up to 32 different microorganisms, using a Steers replicator block. The inoculated plates were incubated at 35°-37° C. for 20 to 24 hours. In addition, a control plate, using BHI agar containing no test compound, was prepared and incubated at the beginning and end of each test.
An additional plate containing a compound having known susceptibility patterns for the organisms being tested and belonging to the same antibiotic class as the test compound was also prepared and incubated as a further control, as well as to provide test-to-test comparability. Erythromycin A was used for this purpose.
After incubation, each plate was visually inspected. The minimum inhibitory concentration (MIC) was defined as the lowest concentration of drug yielding no growth, a slight haze, or sparsely isolated colonies on the inoculum spot as compared to the growth control.

[1] = Candida albicans CCH 442 (code TT)
[2] = Enterococcus faecism ATCC 8043 (code II)
[3] = Escherichia coli DC-2 (code SS)
[4] = Escherichia coli JUHL (code QQ)
[5] = Haemophilis influenzae DILL AMP R (code WW)
[6] = Micrococcus luteus ATCC 4698 (code PP)
[7] = Micrococcus luteus ATCC 9341 (code OO)
[8] = Mycobacterium smegmatis ATCC 114 (code UU)
[9] = Nocardia Asteroides ATCC9970 (code VV)
[10] = Staphylococcus aureus 1775 (code GG)
[11] = Staphylococcus aureus A5177 (code BB)
[12] = Staphylococcus aureus A-5278 (code CC)
[13] = Staphylococcus aureus ATCC 6538P (code AA)
[14] = Staphylococcus aureus CMX 553 (code FF)
[15] = Staphylococcus aureus CMX 642A (code DD)
[16] = Staphylococcus aureus NCTC10649M (code EE)
[17] = Staphylococcus epidermidis 3519 (code HH)
[18] = Streptococcus Pneumonia 5649 (code ZZA)
[19] = Streptococcus Pneumonia 5979 (code ZZ)
[20] = Streptococcus Pneumonia ATCC6303 (code XX)
[21] = Streptococcus Pneumonia GYR 1171 (code YY)
[22] = Streptococcus agalactiae CMX 508 (code KK)
[23] = Streptococcus bovis A-5169 (code JJ)
[24] = Streptococcus pyogenes 930 (code MM)
[25] = Streptococcus pyogenes EES61 (code LL)
[26] = Streptococcus pyogenes PIU 2548 (code NN)

SMILES	MIC [1] [µg/mL]	MIC [2] [µg/mL]	MIC [3] [µg/mL]	MIC [4] [µg/mL]	MIC (Escherichia coli SS (code RR)) [µg/mL]	MIC [5] [µg/mL]	MIC [6] [µg/mL]	MIC [7] [µg/mL]	MIC [8] [µg/mL]	MIC [9] [µg/mL]	MIC [10] [µg/mL]	MIC [11] [µg/mL]	MIC [12] [µg/mL]	MIC [13] [µg/mL]	MIC [14] [µg/mL]	MIC [15] [µg/mL]	MIC [16] [µg/mL]	MIC [17] [µg/mL]	MIC [18] [µg/mL]	MIC [19] [µg/mL]	other results
CC[C@H]1OC(=O)[C@H](C)C(=O)[C@H](C)[C@@H](O[C@@H]2O[C@H](C)C[C@H](N(C)C)[C@H]2O)[C@@](C)(OCC=Cc2ccc(F)cc2)C[C@@H](C)C(=O)[C@H](C)[C@@H](O)[C@]1(C)O [Example 174, Compound of Formula (VIII): X is O, R is CH2—CH═CH-(4-fluorophenyl)]	> 100	3.1	> 100	> 100	12.5	128	0.78	0.39	3.1	0.78	> 100	3.1	> 100	3.1	3.1	3.1	3.1	3.1	2	> 128	MIC [20]: 1 µg/mL; MIC [21]: 1 µg/mL; MIC [22]: 0.39 µg/mL; MIC [23]: 0.2 µg/mL; MIC [24]: > 100 µg/mL; MIC [25]: 0.39 µg/mL; MIC [26]: 1.56 µg/mL
CC[C@H]1OC(=O)[C@H](C)C(=O)[C@H](C)[C@@H](O[C@@H]2O[C@H](C)C[C@H](N(C)C)[C@H]2O)[C@@](C)(OCC(O)C#N)C[C@@H](C)C(=O)[C@H](C)[C@@H](O)[C@]1(C)O (stereo partly drawn) [Example 175, Compound of Formula (VIII): X is O, R is CH2—CH(OH)—CN]	> 100	0.02	> 100	> 100	0.78	64	0.1	0.05	0.78	0.39	12.5	0.39	25	0.2	0.78	0.78	0.78	0.78	2	8	MIC [20]: 0.03 µg/mL; MIC [21]: 0.03 µg/mL; MIC [22]: 0.02 µg/mL; MIC [23]: 0.02 µg/mL; MIC [24]: 3.1 µg/mL; MIC [25]: 0.01 µg/mL; MIC [26]: 0.39 µg/mL
CC[C@H]1OC(=O)[C@H](C)C(=O)[C@H](C)[C@@H](O[C@@H]2O[C@H](C)C[C@H](N(C)C)[C@H]2O)[C@@](C)(OCc2ccc3ccccc3c2)C[C@@H](C)C(=O)[C@H](C)[C@H]2NC(=O)O[C@@]21C [Example 176, Compound of Formula (IX): L is CO, T is NH, R is —CH2-(2-naphthyl)]	> 100	0.2	> 100	> 100	3.1	64	0.2	0.05	0.78	1.56	100	0.78	> 100	1.56	0.78	1.56	0.78	0.78	0.25	64	MIC [20]: 0.25 µg/mL; MIC [21]: 0.25 µg/mL; MIC [22]: 0.05 µg/mL; MIC [23]: 0.05 µg/mL; MIC [24]: 50 µg/mL; MIC [25]: 0.05 µg/mL; MIC [26]: 0.2 µg/mL
C=CCO[C@@]1(C)C[C@@H](C)C(=O)[C@H](C)[C@H]2N(C)C(=O)O[C@]2(C)[C@@H](CC)OC(=O)[C@H](C)C(=O)[C@H](C)[C@H]1O[C@@H]1O[C@H](C)C[C@H](N(C)C)[C@H]1O [Example 179, Compound of Formula (IX): L is CO, T is N(CH3), R is —CH2CH═CH2]	> 100	1.56	> 100	> 100	6.2	> 128	3.1	1.56	12.5	3.1	> 100	6.2	> 100	6.2	6.2	6.2	6.2	12.5	0.5	> 128	MIC [20]: 0.5 µg/mL; MIC [21]: 0.5 µg/mL; MIC [22]: 0.39 µg/mL; MIC [23]: 0.39 µg/mL; MIC [24]: > 100 µg/mL; MIC [25]: 0.39 µg/mL; MIC [26]: 0.78 µg/mL
CC[C@H]1OC(=O)[C@H](C)C(=O)[C@H](C)[C@@H](O[C@@H]2O[C@H](C)C[C@H](N(C)C)[C@H]2O)[C@@](C)(OCC=Cc2cnc3ccccc3c2)C[C@@H](C)C(=O)[C@H](C)[C@H]2N(C)C(=O)O[C@]12C [Example 180, Compound of Formula (IX): L is CO, T is N(CH3), R is —CH2CH═CH-(3-quinolyl)]	> 100	0.05	> 100	> 100	0.2	4	0.1	0.02	0.2	0.1	> 100	0.1	> 100	0.1	0.1	0.1	0.1	0.1	0.25	128	MIC [20]: 0.03 µg/mL; MIC [21]: 0.03 µg/mL; MIC [22]: 0.05 µg/mL; MIC [23]: 0.02 µg/mL; MIC [24]: 25 µg/mL; MIC [25]: 0.02 µg/mL; MIC [26]: 0.2 µg/mL
CCC1OC(=O)C(C)C(=O)C(C)C(OC2OC(C)CC(N(C)C)C2O)C(C)(OCC=Cc2cnc3ccccc3c2)CC(C)C(=O)C(C)C2N(CCN(C)C)C(=O)OC12C (stereo not drawn) [Example 182, Compound of Formula (IX): L is CO, T is N (CH2CH2N(CH3)2), R is —CH2CH═CH(3-quinolyl)]	> 100	0.1	> 100	> 100	0.39	8	0.39	0.02	0.39	0.2	> 100	0.2	> 100	0.39	0.39	0.39	0.39	0.78	2	> 128	MIC [20]: 0.125 µg/mL; MIC [21]: 0.25 µg/mL; MIC [22]: 0.05 µg/mL; MIC [23]: 0.01 µg/mL; MIC [24]: 100 µg/mL; MIC [25]: 0.01 µg/mL; MIC [26]: 0.39 µg/mL
C=CCOC1(C)CC(C)C(=O)C(C)C2N(CC=C)C(=O)OC2(C)C(CC)OC(=O)C(C)C(=O)C(C)C1OC1OC(C)CC(N(C)C)C1O (stereo not drawn) [Example 183, Compound of Formula (IX): L is CO, T is N (CH2CH═CH2), R is —CH2CH═CH2]	> 100	3.1	> 100	> 100	25	> 128	25	6.2	> 100	1.56	> 100	25	> 100	25	25	25	25	25	2	> 128	MIC [20]: 2 µg/mL; MIC [21]: 2 µg/mL; MIC [22]: 1.56 µg/mL; MIC [23]: 0.78 µg/mL; MIC [24]: > 100 µg/mL; MIC [25]: 1.56 µg/mL; MIC [26]: 3.1 µg/mL
CCC1OC(=O)C(C)C(=O)C(C)C(OC2OC(C)CC(N(C)C)C2O)C(C)(OCC=Cc2cnc3ccccc3c2)CC(C)C(=O)C(C)C2N(CC=Cc3cnc4ccccc4c3)C(=O)OC12C (stereo not drawn) [Example 184, Compound of Formula (IX): L is CO, T is T is N (CH2CH═CH-(3-quinolyl)), R is —CH2CH═CH-(3-quinolyl)]	> 100	0.2	> 100	> 100	12.5	> 128	0.78	0.39	6.2	3.1	> 100	1.56	> 100	3.1	1.56	3.1	3.1	3.1	2	32	MIC [20]: 1 µg/mL; MIC [21]: 0.5 µg/mL; MIC [22]: 0.1 µg/mL; MIC [23]: 0.1 µg/mL; MIC [24]: 25 µg/mL; MIC [25]: 0.1 µg/mL; MIC [26]: 1.56 µg/mL
